Reference: US20250302748A1, “METHOD FOR ENHANCING THE EFFICIENCY OF DRUG LOADING INTO EXTRACELLULAR VESICLES AND MEDICINAL PRODUCTS THEREOF” (Shine-On BioMedical CO., LTD., priority 2024, published 2025)
Where a name gives a salt, the structure may show the parent alone.

Key:
[1] = Safety study with serum biochemical analysis after third weekly administration; type: in vivo, Immunocompetent mice
Excerpt: Furthermore, to confirm that exosome 10 retains its biocompatibility after loading the target drug and is safe for in vivo use, please refer to Table 5, an animal model is applied to evaluate the safety. Immunocompetent mice were divided into control group (Control), vehicle control group (Vehicle control), drug treatment group (Dox), and exosome treatment groups 1-3 (Dox@EXO 1-3). The groups above were weekly administered Lactated Ringer's solution, the exosomes 10, the target drug (Doxorubicin, Dox-HCl), and the exosomes 10 loaded with the target drug Dox-HCl (Dox@EXO) in concentrations of 2 mg/kg, 6 mg/kg, and 12 mg/kg respectively. After receiving the third administration, blood samples were collected for serum biochemical analysis to monitor organ function.

[2] = tested on: breast cancer cells (MDA-MB-231); test: Orthotopic breast cancer animal model, IVIS luminescence; type: in vivo, mice; details: day 49, two weeks after final administration; tail vein injections for six weeks; luminescence converted into tumor volume
Excerpt: Referring to FIG. 9C, a breast cancer animal model was applied to evaluate the efficacy and biocompatibility of exosome 10 loaded with the target drug. In this experiment, the breast cancer animal model was constructed by injecting the breast cancer cells (MDA-MB-231) orthotopically into the mammary fat pad of the mice and then culturing the breast cancer cells into tumor. The mice were divided into drug treatment groups 1 to 3 and control group 1. The breast cancer animal model in drug treatment groups 1 to 3 were received the target drug directly (Dox-HCl), the liposome injection loaded with the target drug Dox-HCl (Dox@Lipo), and the exosomes 10 loaded with the target drug Dox-HCl (Dox@EXO) respectively; the control group 1 is the group treated with a placebo (PBS) (Ctrl).
Each group (groups 1-3 and control group 1) of the breast cancer animal model described above was received tail vein injections continuously for six weeks administration following the injection of breast cancer cells (MDA-MB-231). Tumor development was monitored and imaged using an in vivo imaging system (IVIS Imaging System), which measured tumor progression based on a luminescence signal of the tumor.

[3] = 12 mg/kg weekly, after third administration, serum

COc1cccc2c1C(=O)c1c(O)c3c(c(O)c1C2=O)C[C@@](O)(C(=O)CO)C[C@@H]3O[C@H]1C[C@H](N)[C@H](O)[C@H](C)O1 [Dox-HCl, Doxorubicin hydrochloride]
ALB (Albumin) [1, 3]: 2.68 g/dL
ALP (Alkaline Phosphatase) [1, 3]: 182.52 U/L
ALT [1, 3]: 29.52 U/L
AMY (Amylase) [1, 3]: 3424.8 U/L
AST [1, 3]: 76.88 U/L
CK (Creatine kinase) [1, 3]: 236.06 U/L
LDH (Lactate Dehydrogenase) [1, 3]: 648.28 U/L
Difference in serum biochemical parameters versus control group (One-way ANOVA) ([1]; Dox 12 mg/kg, Dox@EXO 2, 6 and 12 mg/kg): significant differences in liver function markers such as albumin (ALB) and alkaline phosphatase (ALP)
Inhibition rate of tumor growth [2]: 73.8%
